For 17 molecules, GI50, Emax and EC50 results are on record in patent publication US9949968B2, “Diarylalkylamine REV-ERB antagonists and their use as medicaments” (FONDAZIONE ISTITUTO ITALIANO DI TECNOLOGIA, priority 2013, dated 2018).

Assay [1] relates to tumorigenic breast cancer cells BT-474. Put plainly: Growth inhibition assay (CyQUANT Cell Proliferation Assay) in BT-474 cells. Type of assay: cell-based. Conditions: Homo sapiens; for GI50: 48 h, CyQUANT, read-out: Cell Growth Inibition GI50; for Emax: reduction of cells after 48 h at saturating dose, read-out: Cell Growth Inibition GImax. The text has this:
Given that REV-ERB target genes include several metabolic regulators, such as Pgc-1α and Nampt, it was decided to test the cell proliferation with a method that is independent from the metabolic state of the cell.
The CyQUANT® Cell Proliferation Assay Kit (Invitrogen) was used, an assay that has a linear detection range extending from 50 or fewer to at least 250,000 cells.
Frozen cells are simply thawed and lysed by addition of a buffer containing the CyQUANT®.
For the assay, tumorigenic breast cancer cells BT-474 cells were seeded at 2500 cells per well in a 96-well plate and incubated over-night at 37° C. Then, fresh medium containing different concentration of the compounds or vehicle (DMSO) was added and cells were growth 48 h at 37° C. Finally, cells were frozen at […] and then processed according to the manufacture instructions. A minimum of triplicate data for each dose was used for the analysis.
Data were collected and analyzed with Prism 5 software to calculate the growth inhibition curve.
In particular, values obtained from the DMSO treated cells was set at 100% of growth. Data from treatment of cells with serial dilutions of the compounds were normalized versus the DMSO group and fitted using a four-parameter dose-response curve.
GI50 was calculated as the concentration of compound that gives a response half way between bottom and top plateaus of the fitted curve.
The bottom plateaus of the fitted curve was used to calculate the Growth Inhibition max (GImax), defined as the percentage of the reduction of cells after 48 h upon a saturating dose of compound.
(§1) The different compounds were tested for their ability to inhibit the growth of the tumorigenic breast cancer cells BT-474 and for their antagonistic activity toward REV-ERB transcriptional repression, as described in the biological method section.
For the cell growth inhibition (GI) the growth inhibition 50 (GI50) and the growth inhibition max (GImax) are reported. […] The bottom plateaus of the curve was used to calculate the Growth Inhibition max (GImax), defined as the percentage of the reduction of cells after 48 h upon a saturating dose of the administered compound. Compounds with a GI50<100 μM were also tested for their antagonistic activity toward REV-ERB. For these compounds, the EC50 value is provided, calculated as the concentration of compound that gives a response half between the bottom (expression of the reporter in absence of compound) and the top (expression of the reporter at saturating doses of compound) plateaus of the fitted curves (see biological method section for a description of the reported assay). n.d.=not determined; n.t.=not tested.

The test system of assay [2] is REV-ERB. Put plainly: Luciferase-based assay of REV-ERB mediated transcriptional regulation (RevRE/SV40-CLuc reporter in HEK-293 cells). Type of assay: cell-based. Conditions: HEK-293 cells transfected with RevRE reporter and REV-ERBα and/or β; read 24 h post-transfection; read-out: REV-ERB antagonism EC50.
Source text: Luciferase-Base Assay to Assess the Activity of the Compounds on REV-ERB Mediated Transcriptional Regulation
In order to assess the effect of the compounds of the invention on REV-ERB activity the inventors exploited the ability of REV-ERB to repress gene transcription of a specific DNA cis-element. In fact, the DNA binding domain (DBD) of REV-ERB recognizes specific DNA sequences (called RevREs=Rev-erb Responsive Elements) which contains an AGGTCA motif linked in 5′ to an A/T rich sequence harboring the following consensus: A/T A A/T N T (Harding et al., Mol Cell Biol., 1993; 13:3113).
Therefore, two repetitions of the RevRE consensus AGAATGTAGGTCA (SEQ ID NO: 13) upstream a SV40 promoter driving the expression of a reporter gene were cloned. As reported, the luciferase enzyme from the ostracod Cypridina noctiluca was adopted. […] Cypridina luciferase (CLuc) is secreted from cells by virtue of its natural signal peptide and its luminescence can be measured from the supernatant of transfected cells. Therefore, cell lysis is not necessary. Secreted CLuc is a very stable protein. Because of this property, the activity measured from the supernatant reflects the amount of protein accumulated up to the time of sampling. Multiple samples can therefore be obtained from the same transfected cells, allowing an easy set-up of time-course experiments. In addition, the direct use of the supernatant makes the system easily prone to automation for High Throughput Screening.
In order to normalize the experiment for the transfection efficiency, it was used a plasmid containing a SV40 promoter driving the expression of a secreted form of human alkaline phosphatase (SEAP), which enzymatic activity in the supernatant can be measured with chemiluminescence substrates.
To be able to rule out false-positive, for example due to the interference of the compounds to be tested with the fluorescence and/or chemiluminescence reactions, it was used as control a mutated version of the RevRE (GAGCCCGTAGGTCA) (SEQ ID NO: 14) that is no longer able to bind REV-ERB DBD (Harding et al., Mol Cell Biol., 1993; 13:3113).
The person skilled in the art will appreciate that an agonist will improve the ability of REV-ERB to repress the transcription, reducing the luminescence signal, while an antagonist will produce the opposite effect.
For the assay, HEK-293 cells were transfected with the reporter vectors and a plasmid expressing the REV-ERBα and/or β protein. After 6 h from transfection, the medium was replaced with fresh medium containing different doses of the compounds or vehicle (DMSO). After 24 h post-transfection, the supernatant was analyzed for the secreted luciferase and AP activity according to the manufacture instruction. Data normalized as fold activation versus vehicle (DMSO) were fitted using a four-parameter dose-response curve to calculate the EC50 of the different compounds.
as §1
For the cell growth inhibition (GI) the growth inhibition 50 (GI50) and the growth inhibition max (GImax) are reported. […] The bottom plateaus of the curve was used to calculate the Growth Inhibition max (GImax), defined as the percentage of the reduction of cells after 48 h upon a saturating dose of the administered compound. Compounds with a GI50<100 μM were also tested for their antagonistic activity toward REV-ERB. […]

Molecules are shown by their SMILES. pEC50: −log10 of the molar value. Structures can show the parent of a compound that is named as a salt.

One may read the GI50 as the concentration at which growth is held to half of that of the control. A word on the pEC50: it is −log10 of the EC50, conventionally taken in molar units. Take `Oc1ccc(CNC2(c3ccccc3F)CCCC2)cc1CN1CCCCC1` [Example 2, 4-[[[1-(2-Fluorophenyl)cyclopentyl]amino]methyl]-2-(1-piperidylmethyl)phenol dihydrochloride]: in assay [1], the 50% growth inhibitory concentration (GI50) turned out to be 30 µM and the Emax came out at 55%. Also, the negative logarithm of the EC50 (pEC50) in assay [2] was 4.35.
Regarding `CN1CCN(Cc2cc(CNC3(c4ccccc4F)CCCCC3)ccc2O)CC1` [Example 3, 4-[[[1-(2-Fluorophenyl)cyclohexyl]amino]methyl]-2-[(4-methylpiperazin-1-yl)methyl]phenol trihydrochloride], in assay [1], the GI50 was 14 µM and the Emax was 95%. The negative-log EC50 (pEC50) in assay [2] was 4.70.
The like results for `CN1CCN(Cc2cccc(CNC3(c4ccccc4F)CCCC3)c2)CC1` [Example 4, 1-(2-Fluorophenyl)-N-[[3-[(4-methylpiperazin-1-yl)methyl]phenyl]methyl]-cyclopentanamine trihydrochloride] were, in that order, 30 µM, 73% and 4.33.
For `COc1ccc(CNC2(c3ccccc3F)CCCC2)cc1CN1CCN(C)CC1` [Example 5, 1-(2-Fluorophenyl)-N-[[4-methoxy-3-[(4-methylpiperazin-1-yl)methyl]-phenyl]methyl]cyclopentanamine trihydrochloride], in that order: 26 µM, 75% and 4.37.
The like results for `CN1CCN(Cc2cc(CNC3(c4ccccc4)CCCC3)ccc2O)CC1` [Example 7, 2-[(4-Methylpiperazin-1-yl)methyl]-4-[[(1-phenylcyclopentyl)amino]methyl]-phenol trihydrochloride] were, in that order, 18 µM, 70% and 4.62.
As for `Oc1ccc(CNC2(c3ccccc3F)CCCC2)cc1CN1CCN(c2ccccc2)CC1` [Example 9, 4-[[[1-(2-Fluorophenyl)cyclopentyl]amino]methyl]-2-[(4-phenylpiperazin-1-yl)methyl]phenol trihydrochloride], in assay [1], the concentration for 50% growth inhibition (GI50) came to 30 µM and the Emax amounted to 50%. For the same molecule, the pEC50 in assay [2] was 4.30.
For `CCN1CCN(Cc2cc(CNC3(c4ccccc4F)CCCC3)ccc2O)CC1` [Example 10, 2-[(4-Ethylpiperazin-1-yl)methyl]-4-[[[1-(2-fluorophenyl)cyclopentyl]amino]-methyl]phenol trihydrochloride], in that order: 15 µM, 70% and 4.60.
As for `Oc1ccc(CNC2(c3ccccc3F)CCCC2)cc1CN1CCNCC1` [Example 11, 4-[[[1-(2-Fluorophenyl)cyclopentyl]amino]methyl]-2-(piperazin-1-ylmethyl)-phenol], in assay [1], the concentration for 50% growth inhibition (GI50) is 24 µM and the Emax stood at 70%. Further, the pEC50 in assay [2] was 4.40.
For `Oc1ccc(CNC2(c3ccccc3F)CCCC2)cc1CN1CCN(Cc2ccccc2)CC1` [Example 12, 2-[(4-Benzylpiperazin-1-yl)methyl]-4-[[[1-(2-fluorophenyl)cyclopentyl]amino]-methyl]phenol trihydrochloride], in that order: 23 µM, 77% and 4.40.
`COc1ccccc1C1(NCc2ccc(O)c(CN3CCN(C)CC3)c2)CCCC1` [Example 14, 4-{[1-(2-Methoxy-phenyl)-cyclopentyl-amino]-methyl}-2-(4-methylpiperazin-1-ylmethyl)-phenol trihydrochloride]: in assay [1], the 50% growth inhibitory concentration (GI50) is 19 µM and the Emax stood at 82%. In assay [2], the pEC50 is 4.64.
The like results for `CN1CCN(Cc2cc(CNC3(c4ccccc4F)CCC(F)(F)CC3)ccc2O)CC1` [Example 17, 4-[[[4,4-difluoro-1-(2-fluorophenyl)cyclohexyl]amino]methyl]-2-[(4-methyl-piperazin-1-yl)methyl]phenol trihydrochloride] were, in that order, 18 µM, 90% and 4.68.
The like results for `CN1CCC(Cc2cccc(CNC3(c4ccccc4F)CCCC3)c2)CC1` [Example 18, 1-(2-fluorophenyl)-N-[[3-[1-methyl-4-piperidyl)methyl]phenyl]methyl]cyclopentanamine dihydrochloride] were, in that order, 2 µM, 95% and 5.10.
The like results for `CN1CCC(Cc2cccc(CN(C)C3(c4ccccc4F)CCCC3)c2)CC1` [Example 19, 1-(2-fluorophenyl)-N-methyl-N-[[3-[(1-methyl-4-piperidyl)methyl]phenyl]methyl]cyclopentanamine dihydrochloride] were, in that order, 5 µM, 90% and 4.96.
As to `CN1CCN(Cc2cc(CNC3(c4ccccc4F)CCN(Cc4ccccc4)CC3)ccc2O)CC1` [Example 20, 4-[[[1-Benzyl-4-(2-fluorophenyl)-4-piperidyl]amino]methyl]-2-[(4-methylpiperazin-1-yl)methyl]phenol tetrahydrochloride], in assay [1], the concentration for 50% growth inhibition (GI50) stood at 11 µM and the Emax came out at 92%. Also, in assay [2], the pEC50 is 4.92.
For `Fc1ccccc1C1(NCc2cccc(CN3CCCCC3)c2)CCCC1` [Example 21, 1-(2-Fluorophenyl)-N-[[3-(1-piperidylmethyl)phenyl]methyl]cyclopentanamine dihydrochloride], in that order: 50 µM, 76% and 4.46.
For `CN1CCN(Cc2cc(CNC3(c4cccc(F)c4)CCCC3)ccc2O)CC1` [Example 22, 4-[[[1-(3-Fluorophenyl)cyclopentyl]amino]methyl]-2-[(4-methylpiperazin-1-yl)methyl]phenol trihydrochloride], in assay [1], the concentration for 50% growth inhibition (GI50) turned out to be 14 µM and the Emax turned out to be 80%. For the same molecule, the pEC50 in assay [2] is 4.82.
For `CN1CCN(Cc2cc(CNC3(c4ccc(F)cc4)CCCC3)ccc2O)CC1` [Example 23, 4-[[[1-(4-Fluorophenyl)cyclopentyl]amino]methyl]-2-[(4-methylpiperazin-1-yl)methyl]phenol trihydrochloride], in that order: 10 µM, 90% and 5.00.
